Results on one molecule are retold here after US9790188B2, “Benzimidazole derivatives and uses thereof” (Whitehead Institute for Biomedical Research, priority 2013, dated 2017).

Data set [1] deals with Aβ peptide. As to the kind of experiment: Yeast growth rescue, Aβ peptide proteinopathy model. It counts as cell-based. On the procedure:
(§1) (A) Structure of lead compound ABI. (B) Dose-response curves showing the relative rescue of ABI (log2, μM) in five yeast proteinopathy models. Rescue is relative to a positive control compound as determined by growth (OD600). (C) Localization of α-syn-GFP in strains with increasing toxicity: NoTox, InTox, HiTox and HiTox treated with 10 μM ABI. […] (E) (Left panel) Western blot of α-syn-GFP in NoTox, InTox, and HiTox strains with anti-α-syn antibody. (Right panel) Quantitation of western blot (α-syn relative to total protein quantitated from a Coomassie gel and normalized to 100% for HiTo). **: P<0.01; and ***: P<0.001, according to one-way ANOVA and a Tukey's test.
(§2) Yeast strains expressing toxic proteins have been described previously (6, 9, 33, 34) (Table 1). All strains have either single or multiple inserts for galactose-inducible expression. In addition, all stains have either deletions of the Δpdr1::KanMX and Δpdr3::KanMX or Δpdr5::KanMX to reduce efflux of compounds and required compound dosing. Yeast were cultured in complete synthetic media (CSM) and an appropriate dropout (minus HIS or URA) to maintain plasmids if required. […]
(§3) Starting cultures for all dose-response assays were established as described above. […] Plates were then read with a Tecan Saphire plate reader at OD600.

Data set [2] concerns α-syn. Put plainly: Yeast growth rescue from α-syn toxicity (dose-response). Type of data set: cell-based. On the procedure: For galactose-induction experiments, overnight cultures were grown in CSM/2% glucose to saturation and diluted 1:20 into CSM/2% raffinose for ˜2 generations. Cultures were then diluted into CSM/2% galactose at an optimum OD600 for the experiment (see ‘Growth assays’).
Source plates were assembled in 96 well plates using multichannel pipettes to dilute rows in 1.6-fold serial dilutions of CSMGal. […] For α-syn, the final starting OD600 was 0.02. Drug concentration ranges varied depending on efficacy, growth inhibition, and solubility in media. A Tecan EvoFreedom liquid handling robot was then used to transfer culture from 96 to 384 well format with each well being represented four times. Final well volume was 35 μL. Plates were then incubated in humidified containers at 30° C. for either 24 or 40 hours. Plates were then read with a Tecan Saphire plate reader at OD600.
Raw OD600 values were transformed to “Relative Growth” in WT cells or “% Maximum Rescue” in α-syn experiments. In WT cells, the well background was subtracted and all values were then normalized to 100% for the untreated condition. In α-syn rescue experiments, the well background was subtracted and the maximum rescue in the particular experiment was normalized to 100%.

For data set [3], the system named is TDP-43. As to the kind of experiment: Yeast growth rescue screen, cells expressing TDP-43. Type of data set: cell-based. To be noted: yeast expressing TDP-43. The source says:
Thus, rescue was not targeted to a common feature of misfolded protein toxicity, but rather reflected the ability of ABI to target specific pathologies related to α-syn (and to a lesser degree TDP-43).
Yeast strains expressing toxic proteins have been described previously (6, 9, 33, 34) (Table 1). All strains have either single or multiple inserts for galactose-inducible expression. In addition, all stains have either deletions of the Δpdr1::KanMX and Δpdr3::KanMX or Δpdr5::KanMX to reduce efflux of compounds and required compound dosing. Yeast were cultured in complete synthetic media (CSM) and an appropriate dropout (minus HIS or URA) to maintain plasmids if required. For galactose-induction experiments, overnight cultures were grown in CSM/2% glucose to saturation and diluted 1:20 into CSM/2% raffinose for ˜2 generations. Cultures were then diluted into CSM/2% galactose at an optimum OD600 for the experiment (see ‘Growth assays’).
Starting cultures for all dose-response assays were established as described above. All growth assays were carried out in 384 well-format. Source plates were assembled in 96 well plates using multichannel pipettes to dilute rows in 1.6-fold serial dilutions of CSMGal. […] Plates were then read with a Tecan Saphire plate reader at OD600. […]

The subject of data set [4] is FUS/TLS. As to the kind of experiment: Yeast growth rescue, FUS/TLS proteinopathy model. It counts as cell-based. On the procedure: as §1, §2, §3
In data set [5] the test system is aSyn^A53T iPS neurons. As to the kind of experiment: Nitrosative stress (NO sensor FL2) in patient iPS neurons. To be noted: human cortical neurons from iPSCs of a patient carrying α-syn mutations.
Excerpt: Nitrosative stress was monitored by protein nitration levels using the 3-NT antibody. […] All data represented as mean±SEM (*: p<0.05; **: p<0.01, two tail t-test compared to control condition).
The test system of data set [6] is α-syn foci. Put plainly: α-syn-GFP localization / foci microscopy in yeast. It counts as cell-based. To be noted: α-syn-expressing yeast. On the procedure:
Logarithmic growing raffinose cultures were induced with galactose for five hours in the presence or absence of the indication concentration of ABI. Cells were centrifuged, media discarded, and then fixed with 4% paraformaldehyde in 1×PBS for 1 hr. The fixed culture was centrifuged, and the pellet resuspended in 0.4% paraformaldehyde in 1×PBS and kept at 4° C. Single plain images were taken at 100× magnification with a Nikon Eclipse Ti microscope.

The subject of data set [7] is nitrosative stress. As to the kind of experiment: Nitrosative stress (protein nitration, 3-NT antibody) in yeast synucleinopathy model. It counts as cell-based.
The subject of data set [8] is aSyn^A53T iPS neurons. Put plainly: ER protein trafficking (nicastrin, GCase, Endo H) in patient iPS neurons. To be noted: human cortical neurons from iPSCs of a patient carrying α-syn mutations.
Description: Trafficking from ER was assessed by probing for nicastrin and GCase with or without Endo H treatment. Data are normalized using corrected/A53T ratios established in FIG. 6 to more faithfully depict the biological significance of the small molecule effects (n=3). […] All data represented as mean±SEM (*: p<0.05; **: p<0.01, two tail t-test compared to control condition).
Trafficking from ER was assessed by probing for nicastrin and GCase with or without Endo H treatment.
For data set [9], the target named is Rsp5p (Saccharomyces cerevisiae, UniProt P39940). Conditions: pers. comm.; cited from earlier work.
Chain of Rsp5p (P39940 whole entry): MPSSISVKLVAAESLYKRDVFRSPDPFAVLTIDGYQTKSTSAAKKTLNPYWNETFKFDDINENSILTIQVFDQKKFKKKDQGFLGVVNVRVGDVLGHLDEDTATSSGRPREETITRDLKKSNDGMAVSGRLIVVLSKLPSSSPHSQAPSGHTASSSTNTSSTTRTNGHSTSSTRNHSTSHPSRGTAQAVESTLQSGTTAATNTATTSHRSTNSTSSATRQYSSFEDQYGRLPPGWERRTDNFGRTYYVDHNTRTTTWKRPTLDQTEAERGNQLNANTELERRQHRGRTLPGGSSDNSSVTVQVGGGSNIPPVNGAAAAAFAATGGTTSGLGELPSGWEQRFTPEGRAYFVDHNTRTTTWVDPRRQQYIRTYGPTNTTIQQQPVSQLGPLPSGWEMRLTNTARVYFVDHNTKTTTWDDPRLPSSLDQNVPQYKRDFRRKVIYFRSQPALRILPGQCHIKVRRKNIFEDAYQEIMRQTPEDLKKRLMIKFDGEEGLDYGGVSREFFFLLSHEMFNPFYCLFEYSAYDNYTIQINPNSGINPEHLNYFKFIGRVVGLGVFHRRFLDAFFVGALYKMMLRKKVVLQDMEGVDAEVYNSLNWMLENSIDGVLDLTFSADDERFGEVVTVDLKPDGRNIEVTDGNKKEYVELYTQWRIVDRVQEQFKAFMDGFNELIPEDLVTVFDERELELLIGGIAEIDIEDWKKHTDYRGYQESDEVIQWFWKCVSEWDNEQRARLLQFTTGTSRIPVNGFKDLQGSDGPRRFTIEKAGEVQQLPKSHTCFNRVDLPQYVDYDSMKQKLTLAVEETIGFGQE
The subject of data set [10] is htt72Q. Put plainly: Yeast growth rescue, htt72Q proteinopathy model. It counts as cell-based. On the procedure: as §1, §2, §3

A word on the melting point: it is the temperature, or range, at which the solid turns liquid. The molecule `Cc1cccc(-n2cnc3cc(C(=O)NCc4ccccc4Cl)ccc32)c1` [ABI, N-(2-chlorobenzyl)-1-(m-tolyl)-1H-benzo[d]imidazole-5-carboxamide] yielded a melting point of 129 to 131 °C. Further, the “efficacy against Aβ peptide” value in data set [1] is given as “not, however, effective”. The “growth-inhibitory concentration relative to EC50 in rescuing α-syn toxicity” value in data set [2] is listed as “about four-fold”. In addition, the “potency and efficacy against α-syn (rescue of growth)” value in data set [2] (compared with TDP-43 model) is “much greater potency and efficacy”. The “efficacy against TDP-43 (restoration of growth)” value in data set [3] is reported as “modest efficacy”. For the same molecule, the “efficacy against FUS/TLS” value in data set [4] is reported as “not, however, effective”. The nitrosative stress result in data set [5] is “reduced nitrosative stress”. The “accumulation of cytoplasmic α-syn foci / inclusions” value in data set [6] is reported as “prevented the accumulation of cytoplasmic α-syn foci”. Further, the nitrosative stress result in [7] was “prevented the generation of highly localized nitrosative stress”. Also, the “ER-to-Golgi protein trafficking defect” value in data set [8] is on record as “ameliorated an ER-to-Golgi protein trafficking defect”. Moreover, in [9], the “ubiquitination of recombinant Rsp5p in vitro” value is recorded as “did not enhance ubiquitination”. Besides, the “efficacy against htt72Q” value in [10] is on record as “not, however, effective”.
